For orientation: pKd means the Kd on a negative log10 scale, so that one unit is a factor of ten. A lower pKd goes with a large Kd. What is called Inhibition is the relative decrease from the control value, in per cent. Low values mean little suppression, high ones strong suppression. One may read the inhibition as how much of the control response was suppressed. High values mean strong suppression, low ones little suppression. As usually defined, the pIC50 is the IC50 on a negative log10 scale, so that one unit is a factor of ten. A lower pIC50 goes with a large IC50.

The structures appear in SMILES notation. pIC50, pKd: −log10 of the molar value.

Test [1] concerns the target ACK1 (Homo sapiens, UniProt Q07912). The test can be described thus: KdELECT binding assay. Also noted: purchased Eurofins DiscoverX.
The target in test [2] is CHED (Homo sapiens, UniProt Q14004). The test can be described thus: KiNativ, OCI cells live cell. Format: cell-based. The note with it: labeling site Lys2, peptide DIKCSNILLNNR
Test [3] deals with CDK6 (Homo sapiens, UniProt Q00534). In words: KiNativ, OCI cells live cell. Format: cell-based. The conditions noted are these: 2 h, labeling site Lys2, peptide […].
For test [4], the system named is FGFR1, FMS, PDGFRb, TYRO3. In words: KiNativ, OCI cells live cell. The note with it: labeling site Lys1, peptide VAVKMLK. Format: cell-based, human.
The target in test [5] is T1, GCK (Homo sapiens, UniProt Q12851).
T1 sequence (Q12851 1-820): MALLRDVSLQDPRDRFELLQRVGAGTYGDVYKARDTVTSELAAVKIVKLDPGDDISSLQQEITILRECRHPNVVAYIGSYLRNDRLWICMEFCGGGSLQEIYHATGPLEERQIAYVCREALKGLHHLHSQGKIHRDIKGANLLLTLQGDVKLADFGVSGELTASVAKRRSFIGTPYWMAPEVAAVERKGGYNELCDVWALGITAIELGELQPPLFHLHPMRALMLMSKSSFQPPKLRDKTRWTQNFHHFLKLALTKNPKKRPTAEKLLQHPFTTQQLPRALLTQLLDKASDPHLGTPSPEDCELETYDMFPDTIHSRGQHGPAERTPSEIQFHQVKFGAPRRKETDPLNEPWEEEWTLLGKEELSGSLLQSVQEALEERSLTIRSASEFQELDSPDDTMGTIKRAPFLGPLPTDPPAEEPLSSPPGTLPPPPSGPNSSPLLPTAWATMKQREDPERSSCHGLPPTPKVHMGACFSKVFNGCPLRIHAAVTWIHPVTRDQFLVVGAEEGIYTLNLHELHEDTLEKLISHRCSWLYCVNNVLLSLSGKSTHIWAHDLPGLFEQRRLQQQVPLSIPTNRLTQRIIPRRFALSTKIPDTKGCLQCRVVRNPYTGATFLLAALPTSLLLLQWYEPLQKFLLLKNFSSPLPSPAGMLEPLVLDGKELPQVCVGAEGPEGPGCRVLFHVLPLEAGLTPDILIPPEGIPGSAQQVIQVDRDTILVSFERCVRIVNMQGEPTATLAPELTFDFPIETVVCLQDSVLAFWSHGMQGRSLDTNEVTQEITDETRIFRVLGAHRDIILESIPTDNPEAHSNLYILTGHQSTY
The test can be described thus: Kinase assay by Reaction Biology. It is filed as biochemical. More on the design: purchased Eurofins DiscoverX.

Test [6] concerns MOLM13-RES-Luc+ cells. The test can be described thus: MOLM13-RES-Luc+ xenograft model. The conditions noted are these: 3 weeks; for Median survival: TP-0903 60mg/kg or gilteritinib 30 mg/kg once daily 5 days/week. Format: in vivo, NSG mice. As to the method: Engraftment and growth of leukemic cells were monitored by noninvasive bioluminescence imaging in cell line xenograft models, as previously done ([47]). Details on the cell engraftment and dosing in mouse models are provided in the Supplemental Methods.
Cell viability of primary samples
HS5-GFP human bone marrow stromal cells were plated and cultured for 72 hours to near confluence.
MOLM13 cells were then seeded onto HS5-GFP cells to establish a co-culture. Twenty-four hours later, cells were treated with increasing concentrations of drug for an additional 72 hours. MOLM13 and HS5-GFP cells were then separated and MTT assay s were performed for cell viability assessment of each cell population.
For murine or human primary AML cells, 100,000 cells/well were plated in a 96-well plate and treated with increasing concentrations of drug. Cell viability, via trypan blue, was measured every 24 hours. If the viability fell below 50% or at 72 hours of treatment, whichever came earlier, cell viability of each plate was measured via CellTiter-Glo. Primary human AML cells were obtained from the OSUCCC Leukemia Tissue Bank Shared […]
Primary AML samples were analyzed by targeted gene sequencing of 80 genes, as previously described (1). Samples were pooled and analyzed on a MiSeq system using the Illuminia MiSeq Reagent Kit v3. […]
Luc+ or MOLM13-Res -Luc+ cells, 0.5 million OCI-AML3 -Luc+ cells, and 10,000 Ba/F3-FLT3-ITD/F691L-GFP+ cells. Weekly tumor engraftment of cell line xenograft models were assessed after injection of D-luciferin (150mg/kg i.p.; Gold Biotechnology, Inc, St. Louis, MO) on Xenogen IVIS-200 imaging system (Perkin Elmer, Waltham, MA) or GFP monitoring by peripheral blood via BD LSR II flow cytometer (BD Biosciences, San Jose, CA). Signal intensity was analyzed using Living Image Software (PerkinElmer) or FlowJo v10.0.08 software (FlowJo, LLC, Ashland, OR). […]
At indicated time points, cells were collected and washed with PBS. CD11b expression was measured using anti-CD11b -APC antibody (BioLegend, San Diego, CA). […]

Chain of CHED (Q14004 whole entry): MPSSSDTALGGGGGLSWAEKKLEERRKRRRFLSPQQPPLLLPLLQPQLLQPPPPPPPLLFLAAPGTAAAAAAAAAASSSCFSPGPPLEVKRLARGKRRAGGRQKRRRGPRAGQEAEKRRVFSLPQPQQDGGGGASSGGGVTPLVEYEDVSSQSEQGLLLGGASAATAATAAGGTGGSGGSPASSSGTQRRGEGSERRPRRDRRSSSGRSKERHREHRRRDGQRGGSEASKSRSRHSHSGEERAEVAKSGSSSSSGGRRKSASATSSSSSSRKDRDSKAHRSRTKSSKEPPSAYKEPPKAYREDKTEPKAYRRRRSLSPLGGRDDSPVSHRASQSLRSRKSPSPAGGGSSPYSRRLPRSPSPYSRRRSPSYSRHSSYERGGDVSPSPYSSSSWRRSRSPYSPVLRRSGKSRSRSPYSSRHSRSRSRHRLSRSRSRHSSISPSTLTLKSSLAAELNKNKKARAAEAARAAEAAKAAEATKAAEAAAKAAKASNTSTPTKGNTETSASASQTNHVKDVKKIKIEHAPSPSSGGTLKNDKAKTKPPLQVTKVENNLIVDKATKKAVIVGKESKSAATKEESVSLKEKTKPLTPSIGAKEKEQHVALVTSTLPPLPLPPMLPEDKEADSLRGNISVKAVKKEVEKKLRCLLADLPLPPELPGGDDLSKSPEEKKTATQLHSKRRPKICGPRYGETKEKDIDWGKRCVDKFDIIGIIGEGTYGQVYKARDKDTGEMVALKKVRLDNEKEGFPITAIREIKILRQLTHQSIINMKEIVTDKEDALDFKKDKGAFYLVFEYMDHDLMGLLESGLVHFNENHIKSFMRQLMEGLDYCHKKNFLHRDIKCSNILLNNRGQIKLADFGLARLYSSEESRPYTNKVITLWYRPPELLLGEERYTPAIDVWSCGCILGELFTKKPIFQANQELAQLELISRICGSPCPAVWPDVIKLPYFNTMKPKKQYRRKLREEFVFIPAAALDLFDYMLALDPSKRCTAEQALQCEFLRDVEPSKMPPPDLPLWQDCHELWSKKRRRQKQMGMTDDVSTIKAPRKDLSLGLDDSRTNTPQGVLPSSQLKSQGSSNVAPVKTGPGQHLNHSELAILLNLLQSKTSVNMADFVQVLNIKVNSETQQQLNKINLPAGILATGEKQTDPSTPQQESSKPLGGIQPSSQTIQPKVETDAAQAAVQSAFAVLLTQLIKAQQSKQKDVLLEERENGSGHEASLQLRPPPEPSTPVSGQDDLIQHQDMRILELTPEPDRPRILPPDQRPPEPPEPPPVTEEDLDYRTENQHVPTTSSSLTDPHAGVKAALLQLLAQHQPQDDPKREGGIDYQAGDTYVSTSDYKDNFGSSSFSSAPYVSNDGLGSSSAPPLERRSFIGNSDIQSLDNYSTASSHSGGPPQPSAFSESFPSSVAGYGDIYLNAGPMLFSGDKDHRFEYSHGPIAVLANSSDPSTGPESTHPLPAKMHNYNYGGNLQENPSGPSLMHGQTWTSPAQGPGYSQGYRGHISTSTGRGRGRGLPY
Chain of CHED (O75909 whole entry partner): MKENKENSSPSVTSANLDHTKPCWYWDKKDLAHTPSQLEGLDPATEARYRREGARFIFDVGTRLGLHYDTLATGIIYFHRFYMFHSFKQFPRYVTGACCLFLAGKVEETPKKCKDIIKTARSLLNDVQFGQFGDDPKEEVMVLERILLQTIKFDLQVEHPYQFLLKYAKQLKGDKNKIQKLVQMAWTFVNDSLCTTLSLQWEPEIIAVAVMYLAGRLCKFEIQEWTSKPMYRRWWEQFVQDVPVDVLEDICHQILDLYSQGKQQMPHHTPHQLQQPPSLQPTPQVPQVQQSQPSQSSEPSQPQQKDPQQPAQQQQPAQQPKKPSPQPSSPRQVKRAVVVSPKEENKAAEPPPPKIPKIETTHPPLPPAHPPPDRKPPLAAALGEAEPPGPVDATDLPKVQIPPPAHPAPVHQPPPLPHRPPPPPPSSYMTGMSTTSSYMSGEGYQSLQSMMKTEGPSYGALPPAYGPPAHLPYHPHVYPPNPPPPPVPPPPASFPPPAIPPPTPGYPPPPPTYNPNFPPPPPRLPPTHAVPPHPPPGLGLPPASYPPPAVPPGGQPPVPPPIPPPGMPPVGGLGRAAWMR
Chain of ACK1 (Q07912 whole entry): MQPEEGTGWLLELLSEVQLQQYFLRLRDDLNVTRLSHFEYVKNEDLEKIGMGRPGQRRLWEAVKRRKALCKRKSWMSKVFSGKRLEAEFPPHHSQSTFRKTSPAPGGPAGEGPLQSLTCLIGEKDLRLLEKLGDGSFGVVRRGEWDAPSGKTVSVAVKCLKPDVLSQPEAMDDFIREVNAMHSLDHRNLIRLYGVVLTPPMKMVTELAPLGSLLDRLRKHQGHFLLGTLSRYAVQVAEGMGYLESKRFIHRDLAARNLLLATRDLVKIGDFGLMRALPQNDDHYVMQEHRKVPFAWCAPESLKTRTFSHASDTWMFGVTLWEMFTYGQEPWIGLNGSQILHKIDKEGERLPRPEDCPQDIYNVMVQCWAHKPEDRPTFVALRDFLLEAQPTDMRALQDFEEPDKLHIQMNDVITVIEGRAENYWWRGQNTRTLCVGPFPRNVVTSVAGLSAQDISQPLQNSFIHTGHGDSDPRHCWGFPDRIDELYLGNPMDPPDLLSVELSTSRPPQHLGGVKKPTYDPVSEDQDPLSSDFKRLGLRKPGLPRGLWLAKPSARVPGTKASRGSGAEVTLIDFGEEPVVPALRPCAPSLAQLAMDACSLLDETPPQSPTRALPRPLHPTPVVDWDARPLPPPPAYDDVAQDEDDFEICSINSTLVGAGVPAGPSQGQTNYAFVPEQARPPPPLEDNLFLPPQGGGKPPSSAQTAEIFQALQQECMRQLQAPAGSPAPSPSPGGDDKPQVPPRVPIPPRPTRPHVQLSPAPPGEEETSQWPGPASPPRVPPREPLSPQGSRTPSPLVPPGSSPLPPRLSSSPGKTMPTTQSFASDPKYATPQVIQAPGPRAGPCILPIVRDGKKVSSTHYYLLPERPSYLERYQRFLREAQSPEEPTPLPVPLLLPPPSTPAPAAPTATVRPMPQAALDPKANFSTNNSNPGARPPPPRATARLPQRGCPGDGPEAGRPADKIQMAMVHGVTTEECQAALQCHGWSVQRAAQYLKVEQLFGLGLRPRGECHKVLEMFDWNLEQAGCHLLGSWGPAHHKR
Chain of CDK6 (Q00534 whole entry): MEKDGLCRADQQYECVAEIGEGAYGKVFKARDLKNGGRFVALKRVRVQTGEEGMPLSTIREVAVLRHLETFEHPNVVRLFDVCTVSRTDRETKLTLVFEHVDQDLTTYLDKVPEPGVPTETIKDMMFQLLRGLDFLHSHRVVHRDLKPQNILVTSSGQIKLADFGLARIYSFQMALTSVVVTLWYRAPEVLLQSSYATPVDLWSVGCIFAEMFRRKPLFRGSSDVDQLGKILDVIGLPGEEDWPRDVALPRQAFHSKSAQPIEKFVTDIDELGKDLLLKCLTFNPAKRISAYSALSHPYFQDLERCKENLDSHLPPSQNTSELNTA

Turning to `CN1CCN(Cc2ccc(Nc3ncc(Cl)c(Nc4ccccc4S(=O)(=O)N(C)C)n3)cc2)CC1` [TP-0903], the pKd in test [1] is 8.14. Moreover, the Inhibition came to 14.4% in test [2] and 4.2% in test [4]. Testing at 0.1 µM in test [3] gave an inhibition of 74.1%. Further, the pIC50 in test [5] is 8.60. Also, the “Leukemic cell outgrowth compared with vehicle or gilteritinib” value in test [6] (60mg/kg once daily 5 days/week) was “significantly reduced”. Further, the Median survival in test [6] was 31 days.

For the molecule `CCc1nc(C(N)=O)c(Nc2ccc(N3CCC(N4CCN(C)CC4)CC3)c(OC)c2)nc1NC1CCOCC1` [Gilteritinib, gilteritinib], in test [6], the Median survival was determined as 34 days.

These data come from article PMC7714403 (JCI Insight, 2020).
